According to patent US20260226031A1, “NOVEL COMPOUNDS” (NRG THERAPEUTICS LTD., priority 2023, published 2026):

How the values were obtained:
mPTP [1] = assay: mPTP activity (Ca2+ retention) assay in isolated rat liver mitochondria; format: biochemical; settings: isolated rat liver mitochondria; Fluo5N fluorescence at 10 min after CaCl2 (75 μM) bolus; DMSO 0%, 5 μM cyclosporin A 100% inhibition
Source text: Pharmacological inhibition or modulation of the mPTP can be measured in well characterised ‘Ca^2+ retention’ assays performed in isolated mitochondria. In vitro, isolated mitochondria rapidly sequester exogenous Ca^2+ until the intramitochondrial Ca^2+ concentration reaches the threshold for mPTP activation. Once the pore is activated, mitochondrial integrity is compromised and the stored Ca^2+ is released. The distribution of Ca^2+ between extra- and intra-mitochondrial compartments can be measured in real time with the use of membrane-impermeant Ca^2+ sensitive fluorescent dyes. Depending on the configuration of the assay, inhibition or modulation of the mPTP either delays the opening of the pore or increases the concentration of Ca^2+ required to induce mPTP opening.
MPTP activity was measured in mitochondria freshly isolated from female Sprague Dawley (250 to 300 gram) rat livers using the following method. Cervical dislocation was performed on the rat. The liver was then perfused in-situ with ~40 ml cold Dulbecco's Phosphate Buffered Saline (DPBS) prior to dissection and transferred into 30 ml Isolation Buffer (250 mM Sucrose, 10 mM KCl, 1 mM EGTA, 1 mM EDTA, 25 mM HEPES, adjusted to pH 7.5 with 1M NaOH). Each lobe of the liver was then removed from the buffer, minced using tweezers and a scalpel into ~5 mm pieces then transferred into a 50 ml Potterton dounce homogenization tube on ice containing 30 ml ice-cold centrifugation buffer (300 mM Trehalose, 25 mM HEPES, 1 mM EGTA, 1 mM EDTA, 10 mM KCl, adjusted to pH 7.5 with 1M NaOH and supplemented with 0.1% bovine serum albumin (BSA) and complete protease inhibitor cocktail (one tablet of inhibitor per 50 mls of buffer). Homogenisation was carried out using a Teflon® pestle at 1800 rpm. The slurry was centrifuged at 800 g for 10 min at 4° C., then the supernatant centrifuged at 10,000 g for 10 min. The pellet was washed once with FLIPR assay buffer (75 mM Mannitol, 25 mM Sucrose, 5 mM Potassium Phosphate Monobasic, 20 mM Tris base, 100 mM KCl, 0.1% BSA adjusted to pH 7.4 with 5M HCl) centrifuged again, then resuspended in FLIPR assay buffer to a concentration of 8.8 mg/ml protein.
Tested compounds (10 mM stock in DMSO) were serially diluted in DMSO in half log steps to generate 10 test concentrations (final concentrations in assay 30 μM to 1 nM). An intermediate dilution of 5 μl DMSO samples into 247 μl FLIPR assay buffer was carried out prior to transfer of 5 μl into duplicate wells of a 384 well polypropylene assay plate. Control wells were 0.5% (v/v) DMSO and 5 μM cyclosporin A.
A stock mitochondria/Fluo5N assay solution was prepared in 5.6 ml FLIPR assay buffer (at RT) supplemented with succinate disodium salt (10 mM), rotenone (1 μM), Fluo5N pentapotassium salt (2 μM) and 1 ml mitochondria suspension, then transferred (15 μl) into the assay plate containing test compounds and incubated for 10 min at RT. Assay plates were processed for fluorescence detection on either a FLIPR Tetra (Molecular Devices) or CLARIOstar (BMG) plate reader. For kinetic fluorescence detection on the FLIPR, dye fluorescence was measured every 3 sec for a total of 10 min. After 12 sec, a 2.5 μl bolus of CaCl2 (75 μM) was added from a source plate containing 675 μM CaCl2 in FLIPR assay buffer. Alternatively, the 2.5 μl addition of CaCl2 was performed using a Viaflow 384, plates were incubated at RT for 10 min, and dye fluorescence measured after 10 min on the CLARIOstar plate reader. pIC50 values for tested compounds were calculated using the fluorescence value collected at the 10 min timepoint on either plate reader, with % inhibition calculated using the DMSO control and cyclosporin A values as 0 and 100% respectively.

mPTP [2] = assay: mPTP activity (Ca2+ retention) assay in isolated rat brain mitochondria; format: biochemical; settings: isolated rat brain mitochondria; Fluo5N fluorescence at 10 min after Ca2+ (75 μM) bolus
Method: MPTP activity was measured in brain mitochondria freshly isolated from female Sprague Dawley (250 to 300 gram) rats. Anaesthetised rats were perfused in-situ with ~40 ml cold Dulbecco's Phosphate Buffered Saline (DPBS), then brains dissected and transferred into 30 ml Isolation Buffer (225 mM mannitol, 75 mM sucrose, 1 mM EGTA, adjusted to pH 7.4 with 1M NaOH). The brain was minced using tweezers and a scalpel into ~5 mm pieces then transferred into a 50 ml Potterton Dounce homogenization tube on ice containing 10 ml ice-cold isolation buffer (as above with addition of Complete Protease inhibitor; 1 tablet per 50 ml buffer). Homogenisation was carried out using a Teflon® pestle at 1800 rpm. The slurry was centrifuged at 2000 g for 10 min at 4° C., then the supernatant centrifuged at 12,000 g for 9 min. The pellet was resuspended with a dounce homogeniser in isolation buffer as above but with the addition of 0.02% digitonin, centrifuged at 12,000 g for 11 min and finally resuspended in 5 ml modified isolation buffer (as above but with EGTA reduced to 0.1 mM).
Test compounds were prepared in 384 well polypropylene assay plates as described above for the liver mitochondria assay. A stock mitochondria/Fluo5N assay solution was prepared in 5.6 ml assay buffer (120 mM mannitol, 40 mM MOPS, 5 mM KH2PO4, 60 mM KCl, 10 mM pyruvate, 2 mM malate, 2 mM MgCl2, 20 μM ADP, 1.26 μM oligomycin A, adjusted to pH 7.4) supplemented with Fluo5N pentapotassium salt (2 μM) and 1 ml mitochondria suspension, then transferred (15 μl) into the assay plate containing test compounds and incubated for 10 min at RT. Assay plates were then transferred to a FLIPR Tetra plate reader (Molecular Devices). Dye fluorescence was then measured every 3 sec for a total of 10 min.

mPTP Rat liver pIC50* (mPTP [1]) | mPTP Rat brain pIC50 (mPTP [2]) | SMILES
6 | 6.63 | O=C(c1cncc(=O)[nH]1)N1CC(c2ccccc2)C2(CCCC2)C1 (single isomer, unassigned) [Example 17a, 6-[4-Phenyl-2-azaspiro[4.4]nonane-2-carbonyl]-1H-pyrazin-2-one]
<4.52 | <4.52 | O=C(c1cncc(=O)[nH]1)N1CC(c2ccccc2)C2(CCCC2)C1 (single isomer, unassigned) [Example 17b, 6-[4-phenyl-2-azaspiro[4.4]nonane-2-carbonyl]-1H-pyrazin-2-one]
<4.52 | 4.64 | N#Cc1ccc(C2CN(C(=O)c3cncc(=O)[nH]3)CC23CCC3)cc1 (single isomer, unassigned) [Example 20a, 4-[6-(6-oxo-1H-pyrazine-2-carbonyl)-6-azaspiro[3.4]octan-8-yl]benzonitrile]
<4.52 | <4.52 | N#Cc1ccc(C2CN(C(=O)c3cncc(=O)[nH]3)CC23CCC3)cc1 (single isomer, unassigned) [Example 20b, 4-[6-(6-oxo-1H-pyrazine-2-carbonyl)-6-azaspiro[3.4]octan-8-yl]benzonitrile]
6.17 | 7.22 | O=C(c1cc(O)no1)N1CC(c2ccccc2)C2(CCC2)C1 (single isomer, unassigned) [Example 23a, (3-hydroxyisoxazol-5-yl)(8-phenyl-6-azaspiro[3.4]octan-6-yl)methanone]
<4.52 | <4.52 | O=C(c1cc(O)no1)N1CC(c2ccccc2)C2(CCC2)C1 (single isomer, unassigned) [Example 23b, (3-hydroxyisoxazol-5-yl)(8-phenyl-6-azaspiro[3.4]octan-6-yl)methanone]
6.33 | 6.88 | O=C(c1nccc(=O)[nH]1)N1CC(c2ccccc2)C2(CC(F)C2)C1 (single isomer, unassigned) [Example 25a, 2-(2-fluoro-8-phenyl-6-azaspiro[3.4]octane-6-carbonyl)pyrimidin-4(3H)-one]
<4.52 | 5.57 | O=C(c1nccc(=O)[nH]1)N1CC(c2ccccc2)C2(CC(F)C2)C1 (single isomer, unassigned) [Example 25b, 2-(2-fluoro-8-phenyl-6-azaspiro[3.4]octane-6-carbonyl)pyrimidin-4(3H)-one]
5.68 | 6.54 | O=C(c1nccc(=O)[nH]1)N1CC(c2ccccc2)C2(CC(F)C2)C1 (single isomer, unassigned) [Example 25c, 2-(2-fluoro-8-phenyl-6-azaspiro[3.4]octane-6-carbonyl)pyrimidin-4(3H)-one]
<4.52 | <4.52 | O=C(c1nccc(=O)[nH]1)N1CC(c2ccccc2)C2(CC(F)C2)C1 (single isomer, unassigned) [Example 25d, 2-(2-fluoro-8-phenyl-6-azaspiro[3.4]octane-6-carbonyl)pyrimidin-4(3H)-one]
4.88 | 4.96 | O=C(c1cccc(=O)[nH]1)N1CC(c2ccccc2)C2(CCC2)C1 (single isomer, unassigned) [Example 26a, 6-(8-phenyl-6-azaspiro[3.4]octane-6-carbonyl)pyridin-2(1H)-one]

SMILES | mPTP Rat liver pIC50* (mPTP [1]) | mPTP Rat brain pIC50 (mPTP [2])
O=C(c1nccc(=O)[nH]1)N1CC(c2ccccc2)C2(CCC2)C1 (single isomer, unassigned) [Example 21a, 2-[8-phenyl-6-azaspiro[3.4]octane-6-carbonyl]-3H-pyrimidin-4-one] | 5.94 | 6.98
O=C(c1nccc(=O)[nH]1)N1CC(c2ccccc2)C2(CCC2)C1 (single isomer, unassigned) [Example 21b, 2-[8-phenyl-6-azaspiro[3.4]octane-6-carbonyl]-3H-pyrimidin-4-one] | <4.52 | <4.52
